Assay [1] has as its target T1, mouse TRPV3-4M (F522S/L557M/A560T/Q580E) (Mus musculus, UniProt Q8K424, A560T/F522S/L557M/Q580E).
T1 construct: expressed in transfected cells; host or cells: Xenopus laevis oocytes
T1 sequence (Q8K424 1-791 F522S/L557M/A560T/Q580E): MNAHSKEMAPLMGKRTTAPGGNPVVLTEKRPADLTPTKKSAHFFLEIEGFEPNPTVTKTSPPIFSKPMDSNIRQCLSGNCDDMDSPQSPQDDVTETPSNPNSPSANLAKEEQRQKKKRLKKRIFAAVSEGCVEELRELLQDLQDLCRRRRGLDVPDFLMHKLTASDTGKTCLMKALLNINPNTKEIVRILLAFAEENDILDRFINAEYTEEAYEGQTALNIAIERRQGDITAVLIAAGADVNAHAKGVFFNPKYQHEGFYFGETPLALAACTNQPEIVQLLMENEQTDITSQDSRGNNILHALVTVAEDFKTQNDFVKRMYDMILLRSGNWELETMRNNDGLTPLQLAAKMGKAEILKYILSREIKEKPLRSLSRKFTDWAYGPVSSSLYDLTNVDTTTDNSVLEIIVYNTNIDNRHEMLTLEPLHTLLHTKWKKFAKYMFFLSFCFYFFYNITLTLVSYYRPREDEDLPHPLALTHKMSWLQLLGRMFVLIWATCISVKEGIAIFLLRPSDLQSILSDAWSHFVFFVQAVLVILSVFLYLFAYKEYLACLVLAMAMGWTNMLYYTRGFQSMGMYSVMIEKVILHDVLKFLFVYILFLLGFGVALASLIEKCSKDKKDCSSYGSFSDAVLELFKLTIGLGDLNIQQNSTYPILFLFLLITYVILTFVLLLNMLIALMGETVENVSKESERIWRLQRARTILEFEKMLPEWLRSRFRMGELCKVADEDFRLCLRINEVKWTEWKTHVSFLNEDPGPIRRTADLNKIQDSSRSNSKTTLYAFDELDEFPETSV
In words: Two-electrode voltage clamp, TRPV3-4M in oocytes. It is filed as cell-based. Conditions: RTx 100 nM, 2-APB 3 mM, room temperature, ±60 mV. How it is done: (§1) All channel constructs were expressed in Xenopus laevis oocytes and studied using the two-electrode voltage clamp technique (TEVC) following 1–4 days of incubation after cRNA injection. The animal care and experimental procedures were performed in accordance with the Guide for the Care and Use of Laboratory Animals and were approved by the Animal Care and Use Committee of the National Institute of Neurological Disorders and Stroke (Animal protocol number 1253–17). Oocytes were removed surgically and incubated with agitation for 1 hr in a solution containing (in mM) 82.5 NaCl, 2.5 KCl, 1 MgCl2, 5 HEPES, pH 7.6 (with NaOH), and collagenase (2 mg/ml; Worthington Biochemical, Lakewood, NJ). Defolliculated oocytes were injected with cRNA for each of the constructs and incubated at 17°C in a solution containing (in mM) 96 NaCl, 2 KCl, 1 MgCl2, 1.8 CaCl2, 5 HEPES, pH 7.6 (with NaOH), and gentamicin (50 μg/ml, GIBCO-BRL, Gaithersburg, MD). Oocyte membrane voltage was controlled using an OC-725C oocyte clamp (Warner Instruments, Hamden, CT). Data were filtered at 1–3 kHz and digitized at 20 kHz using pClamp software (Molecular Devices, Sunnyvale, CA) and a Digidata 1440A digitizer (Axon Instruments). Microelectrode resistances were 0.1–1 MΩ when filled with 3 M KCl. For recording TRP channel currents, the external recording solution contained (in mM) 100 KCl, 10 HEPES, pH 7.6 (with KOH). […]
A general note: Two-electrode voltage clamp is typically applied to oocytes expressing channels or transporters.

Assay [2] concerns TRPV3-6M + L596V, L599F, S613K, D618P, S620E, I644F, Q646E, P651K, L653V, I659L or T660A. As to the kind of experiment: Two-electrode voltage clamp, TRPV3-6M with individual pore mutations (no RTx response). The note with it: RTx 100 nM, 2-APB 3 mM, room temperature. The format is cell-based, mouse. How it is done:
as §1

The subject of assay [3] is TRPV3-6M/V2P (pore domain of rat TRPV2 in TRPV3-6M). In words: Two-electrode voltage clamp, TRPV3-6M/V2P chimera in oocytes. The format is cell-based, mouse. Conditions: RTx 100 nM. How it is done:
as §1
For temperature-activation experiments, calcium-activated chloride currents were minimized by using calcium-free solution containing 30 µM Caccinh-A01 and recording at negative membrane voltages. Heat stimuli were achieved by passing the external recording solution through glass capillary spirals immersed in a water bath maintained at about 70°C, and recordings were performed during constant perfusion with temperature measured using a thermistor (TA-29, Warner Instruments) located close to the cell. […] The mean I vs T relations were calculated by automatically binning each of the recordings in temperature intervals of 2°C, and averaging a single data point within each interval per cell. […]

Regarding `NCCOB(c1ccccc1)c1ccccc1` [2-APB, 2-aminoethoxydiphenyl borate], the results for the “channel activation (current response)” value in assay [1] and in assay [2] were “activated” and “still activated”, respectively.

As for `C=C(C)[C@]12C[C@@H](C)[C@@]34O[C@](Cc5ccccc5)(O[C@@H]1[C@@H]3C=C(COC(=O)Cc1ccc(O)c(OC)c1)C[C@]1(O)C(=O)C(C)=C[C@@H]41)O2` [RTx, resiniferatoxin], the “channel activation (current response)” value is listed as “not by 100 nM RTx” in assay [1]; “robustly activated” in assay [3] (room temperature, ±60 mV); “RTx-insensitive” in assay [2]. For the same compound, the “RTx activation on cooling” value in assay [3] (temperature decreased to 10°C) was “reduced to baseline levels”.
